In PubChem BioAssay AID489040 (Sanford-Burnham Center for Chemical Genomics, 2010):
Activity calls are given as the source filed them.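 Rule for the calls: active = mean half-maximal activating concentration from the dose-response fit at or below a set limit; inactive = the rest.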

Target: CHO-XBP1 luciferase reporter, IRE1-XBP1 UPR activation
Test: XBP1 luciferase reporter activation – CHO-XBP1 cells, luminescence, counter-screen for apoptotic UPR arm activators, dose response (AID 489040);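 note: reporter read after six hours of compound exposure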

Row | SMILES | EC50
1 | CN=c1scc(-c2ccco2)n1/N=C/c1ccc(O)c(O)c1 | > 80 µM (inactive)
2 | CCOC(=O)C(=Cc1ccc(-n2ccnc2)cc1)C(=O)OCC | > 80 µM (inactive)
3 | CCc1nn(-c2cc(Oc3cccc4ccccc34)nc(-c3ccccc3)n2)c(N)c1C#N | inactive
4 | Cc1noc2ncnc(Sc3ccc(Cl)cc3)c12 | > 80 µM (inactive)
5 | COc1ccccc1N1C(=O)C=C(Sc2nc(C)cc(C)n2)C1=O | > 80 µM (inactive)
6 | Cc1nc([N+](=O)[O-])c(Br)n1CC(=O)c1ccc(Br)cc1 | > 80 µM (inactive)
7 | O=C(Nc1ccc(Cl)cc1)/C(=C/c1cccc(O)c1)c1nc2ccccc2s1 | > 80 µM (inactive)
8 | O=C(Nc1ccc(C(F)(F)F)cc1)c1cc(-c2cccnc2)nc2ccc(Br)cc12 | 6.29 µM
9 | Cc1cc(NC(=O)CCS(=O)(=O)c2nc(-c3ccccc3)cc(C(F)(F)F)n2)no1 | > 80 µM (inactive)
10 | Oc1ccc(/C=N/N2CCN(C3c4ccccc4-c4ccccc43)CC2)cc1O | 18.8 µM
11 | COc1nc(N)nc(NC(=O)c2cccs2)c1N=O | > 80 µM (inactive)
12 | O=C(Nc1cccc(-c2nc3cccnc3s2)c1)C1c2ccccc2Oc2ccccc21 | 5.58 µM
13 | CCOC(=O)c1sc(N(Cc2ccccc2)C(=O)CCl)nc1C | 8.65 µM
14 | O=C1NC(=O)N(CCc2ccc(F)cc2)C(=O)/C1=C/C=C/c1ccccc1 | > 80 µM (inactive)
15 | CC(C)c1ccc(/C=C(\c2nc3ccccc3[nH]2)S(=O)(=O)c2ccccc2)cc1 | > 80 µM (inactive)
16 | Cc1ccc(C)c(NC(=S)c2ccccn2)c1 | > 80 µM (inactive)
17 | COc1ccc(C2Nc3ccc4ccccc4c3-c3c2c(=O)oc2ccccc32)cc1 (configuration not stated) | 9.62 µM
18 | CSc1nnc(NC(=O)c2nc(S(=O)(=O)Cc3ccccc3F)ncc2Cl)s1 | > 80 µM (inactive)
19 | Cc1ccc2oc(Nc3nc(-c4ccccc4)cc(=O)[nH]3)nc2c1 | > 80 µM (inactive)
20 | CCN1CSC(=S)N(Cc2ccccc2)C1 | > 80 µM (inactive)
21 | Cc1cccnc1Nc1nc(-c2ccc(O)c(O)c2)cs1 | inactive
22 | Cc1ccc(Nc2nc(-c3ccc(O)c(O)c3)cs2)nc1 | > 80 µM (inactive)
23 | COc1cc(/C=C2\C(=O)ON=C2c2ccc(Cl)cc2)ccc1O | > 80 µM (inactive)
24 | O=C(Nc1ccc(O)c2c(=O)cc(-c3cccc(Cl)c3)oc12)c1ccccc1Cl | > 80 µM (inactive)
25 | CC(NC(=O)CN(c1cccc(C(F)(F)F)c1)S(=O)(=O)c1ccc(Cl)c([N+](=O)[O-])c1)c1ccccc1 (configuration not stated) | > 80 µM (inactive)

Row | SMILES | EC50
26 | O=C(CCl)Nc1cccc(S(=O)(=O)NC2=NCCCCC2)c1 | > 80 µM (inactive)
27 | O=C(N/N=C(\c1ccccc1)c1ccccn1)c1cccc([N+](=O)[O-])c1 | > 80 µM (inactive)
28 | Cc1cc(C)nc(S/C=C/C(=O)c2ccccc2)n1 | > 80 µM (inactive)
29 | Cn1nnnc1Sc1ncnc2scc(-c3ccc([N+](=O)[O-])cc3)c12 | > 80 µM (inactive)
30 | CS(=O)(=O)c1nc(-c2ccccc2)cc(-c2ccccc2)c1C#N | > 80 µM (inactive)
31 | COc1ccc(-c2cc(C(F)F)n3ncc(C(=O)n4ccnc4C)c3n2)cc1 | > 80 µM (inactive)
32 | CCCN1C/C(=C/c2ccc3c(c2)OCO3)C(=O)/C(=C/c2ccc3c(c2)OCO3)C1 | > 80 µM (inactive)
33 | O=S(=O)(Nc1cccc2cccnc12)c1ccccc1 | > 80 µM (inactive)
34 | Cc1c(C#N)c(NC(=O)CCl)n(Cc2cccs2)c1C | > 80 µM (inactive)
35 | CSc1nnc(NC(=O)c2nc(S(=O)(=O)Cc3ccc(C)cc3)ncc2Cl)s1 | > 80 µM (inactive)
36 | CCc1nc(N=Nc2c(O)[nH]c3ccccc23)c2c3c(sc2n1)CCC3 | inactive
37 | CCOC(=O)c1ccc(N=C2C(=S)N(c3ccc(C(=O)OCC)cc3)C(=N)N2/N=C/c2ccccc2)cc1 | > 80 µM (inactive)
38 | CN1/C(=C\C(=O)COC(=O)c2ccc(O)c(O)c2)C(C)(C)c2ccccc21 | 9.91 µM
39 | C/C(=N\NC(=O)c1ccc(F)cc1)c1ccccn1 | > 80 µM (inactive)
40 | COc1ccc(C(=O)C(CN2CCOCC2)c2ccccc2)cc1 (configuration not stated) | > 80 µM (inactive)
41 | CCOc1cc(NC(=O)CCl)c(OCC)cc1NC(=O)CCl | > 80 µM (inactive)
42 | CN(C)C(=O)CSc1cccc2cccnc12 | > 80 µM (inactive)
43 | COc1ccc(N=Cc2c(O)c3ccccc3oc2=O)cc1 | 11.6 µM
44 | C[C@@H](NC(=O)c1coc(=O)c(Br)c1)c1ccccc1 | > 80 µM (inactive)
45 | Cc1cccc(N=Nc2ccc(O)c3ncccc23)c1 | > 80 µM (inactive)
46 | CC(C)CNC(=O)c1coc(=O)c(Br)c1 | > 80 µM (inactive)
47 | O=C(Cn1ncc(Cl)c(Cl)c1=O)c1ccc2c(c1)OCCO2 | > 80 µM (inactive)
48 | Cc1c(C#N)c(NC(=O)CCl)n(Cc2ccc(F)cc2)c1C | > 80 µM (inactive)
49 | O=C(N/N=C\c1cc2c(cc1Cl)OCO2)c1ccc(Br)s1 | > 80 µM (inactive)
50 | COc1ccc(NC(=O)C(=O)N/N=C\c2ccc(CNC(=O)C(=O)Nc3ccc(C)c(C)c3)o2)c(OC)c1 | > 80 µM (inactive)

Row | SMILES | EC50
51 | COc1ccc(OC)c(N=Cc2c(O)c3ccccc3oc2=O)c1 | 12 µM
52 | O=C(NCc1cccnc1)/C(=C/c1ccc(-c2cccc(Cl)c2)o1)S(=O)(=O)c1ccccc1 | > 80 µM (inactive)
53 | COc1cc([C@H]2c3[nH]c4ccccc4c3C[C@H]3C(=O)N4[C@@H](c5cc(OC)c(OC)c(OC)c5)c5[nH]c6ccccc6c5C[C@H]4C(=O)N23)cc(OC)c1OC | 14.1 µM
54 | CCOC(=O)C1=C(CCl)NC(=O)NC1c1ccc2c(c1)OCO2 (configuration not stated) | > 80 µM (inactive)
55 | COc1ccc(N=c2oc3c(OC)cccc3cc2C(=O)NCc2ccco2)c(OC)c1 | inactive
56 | Cn1c(=O)c2c(SCC(=O)Nc3ccccc3F)nc(-c3ccccc3F)nc2n(C)c1=O | 10.9 µM
57 | CC(C)c1ccc(N2C(=O)NC(=O)/C(=C\C=C\c3ccco3)C2=O)cc1 | > 80 µM (inactive)
58 | COc1ccc2c(c1OC)C(=O)OC2Nc1nc(-c2ccccc2)cs1 (configuration not stated) | > 80 µM (inactive)
59 | Cc1ccccc1CS(=O)(=O)c1ncc(Cl)c(C(=O)Nc2ccc(F)cc2)n1 | > 80 µM (inactive)
60 | O=C(/C(=C/c1cccc(Cl)c1)c1nc2ccccc2[nH]1)c1ccccc1 | > 80 µM (inactive)
61 | O=[N+]([O-])/C=C\c1ccc(N2CCOCC2)cc1 | > 80 µM (inactive)
62 | COc1ccccc1NC(=O)c1cnc(SCC(=O)NCC2CCCO2)n(C)c1=O (configuration not stated) | > 80 µM (inactive)
63 | COc1ccc(N2C(=O)/C(=C/C=C/c3ccccc3[N+](=O)[O-])C(=O)NC2=S)cc1 | > 80 µM (inactive)
64 | O=C1Nc2ccccc2/C1=C\C(=O)c1ccccc1 | > 80 µM (inactive)
65 | Cc1ccc(F)cc1N=Cc1c(O)c2ccccc2oc1=O | > 80 µM (inactive)
66 | COc1ccc(-c2csc3nc(-c4ccc(C)cc4)oc(=O)c23)cc1OC | > 80 µM (inactive)
67 | C=CCNC(=S)N/N=C(\C)c1ccccn1 | > 80 µM (inactive)
68 | CN(C)S(=O)(=O)c1cccc(NC(=O)CSc2cccc3cccnc23)c1 | > 80 µM (inactive)
69 | COc1ccc(-c2ccc(-c3nc4c(c(=O)[nH]c(=O)n4Cc4ccccc4)n3C)o2)c([N+](=O)[O-])c1 | > 80 µM (inactive)
70 | COc1cc(C(Nc2ccccn2)c2ccc3ccc(C)nc3c2O)cc(OC)c1O (configuration not stated) | > 80 µM (inactive)
71 | O=C1C=CC(=O)C(C2=C3C(=O)N(CCc4ccccc4)CC(=O)N3CCC2)=C1 | > 80 µM (inactive)
72 | Cc1ccc(-c2cc(-c3ccc(C)cc3)[n+](-c3ccccc3)c(-c3ccc(C)cc3)c2)cc1 | > 80 µM (inactive)
73 | CC(C)c1ccc(NC(=O)/C(C#N)=C/c2ccncc2)cc1 | > 80 µM (inactive)
74 | COc1cc(OC)cc(C(=O)NC(=S)Nc2cc3oc4ccccc4c3cc2OC)c1 | > 80 µM (inactive)
75 | Oc1ccc(/C=N/Nc2cc(N3CCOCC3)nc(N3CCOCC3)n2)cc1O | > 80 µM (inactive)

Row | SMILES | EC50
76 | Cc1nc(SCC(=O)Nc2ccc(F)cc2)c(C#N)c(C)c1CC(=O)c1ccc(Br)cc1 | > 80 µM (inactive)
77 | CC1=NN(c2cccc(C(=O)O)c2)C(=O)/C1=C\C=C/c1ccccc1 | > 80 µM (inactive)
78 | CN1CCN(Cc2cc(COCc3ccccc3)c3cccnc3c2O)CC1 | inactive
79 | CCc1cc2c(=O)c(-c3cnn(-c4ccccc4)c3)c(C)oc2cc1OCC(=O)Nc1cccc(C)c1 | inactive
80 | O=C(C[C@H]1C[C@H](C(=O)N2CCCCC2)[C@@]2(CCc3ccccc3)c3[nH]c4ccc(Cl)cc4c3CCN2C1=O)NCCC1=CCCCC1 | inactive
81 | COC(=O)Oc1ccc(/C=C/C(=O)OC(C)C)cc1OC(=O)OC | > 80 µM (inactive)
82 | CC1=C(/C=C/C(C)=C/C=C/C(C)=C/C(=O)Nc2ccc(O)cc2)C(C)(C)CCC1 | > 80 µM (inactive)
83 | O=c1c2c3c(sc2ncn1/N=C/c1ccc([N+](=O)[O-])o1)CCCC3 | > 80 µM (inactive)
84 | O=C(CSc1ccccn1)Nc1nonc1[N+](=O)[O-] | > 80 µM (inactive)
85 | Cc1nc(NC(=O)/C=C/c2ccccc2)n[nH]1 | > 80 µM (inactive)
86 | Oc1ccc(CN2CCc3ccccc3C2)c2cccnc12 | > 80 µM (inactive)
87 | CCOC(=O)/C(=C\c1ccc(Cl)cc1)c1nc2sc(C)c(C)c2c(=O)[nH]1 | > 80 µM (inactive)
88 | Cc1cc(C(=O)Cn2ncc(Cl)c(Cl)c2=O)c(C)n1CC(F)(F)F | > 80 µM (inactive)
89 | O=C(Oc1ccccc1/C=C\C(=O)c1cc2ccccc2o1)c1ccccc1 | > 80 µM (inactive)
90 | Cc1cnc(NC(=O)c2cc(S(=O)(=O)N(C)C)ccc2N2CCCC2)s1 | 3.28 µM
91 | Cc1ccc(N2C(=O)NC(=O)/C(=C/c3cnn(-c4ccc(C)cc4)c3)C2=O)cc1 | > 80 µM (inactive)
92 | CC1=NOC(=O)/C1=C\c1ccc(-c2ccc(Cl)cc2Cl)o1 | > 80 µM (inactive)
93 | COc1cccc2sc(N3CCN(c4nc5ccccc5s4)CC3)nc12 | 18.7 µM
94 | O=C(Oc1c(CN2CCOCC2)cc(Cl)c2cccnc12)c1ccccc1F | > 80 µM (inactive)
95 | CCOC(=O)c1c(NC(C)=O)sc2c1CCC(C=O)=C2Sc1ccccc1 | > 80 µM (inactive)
96 | CN(c1ccccc1)S(=O)(=O)c1cccc(C(=O)NCCc2ccc(O)c(O)c2)c1 | 9.81 µM
97 | O=c1[nH]c(-c2ccc(-c3cccc(Cl)c3)o2)nc2ccccc12 | 15 µM
